From patent US20090041888A1, “USE OF FORMULATED DIETS PROVIDING IMPROVED DIGESTION IN FISH” (SOUTHERN ILLINOIS UNIVERSITY, priority 2005, published 2009)

What was measured:
[1] = test system: hybrid striped bass (Morone chrysops X M. saxatilis); test: Growth and feed efficiency trial of practical diets supplemented with a non-nutritive emulsifier; assay type: in vivo; settings: for FCR (feed conversion ratio) / Weight Gain (%): 28 days, initial weight 15 g; for Weight Gain (%): fed daily to satiation
From the text: The present example provides details of experiments conducted to evaluate and quantify the effects of a non-nutritive emulsifier upon the growth and feed efficiency of phase-I hybrid striped bass (Morone chrysops×M. saxatilis). Tween-80® (provided as a liquid supplement) was incorporated into practical diets formulated to meet, or exceed, the known nutrient requirements of hybrid striped bass. Diets were formulated at Southern Illinois University using MIXIT 3 WIN (Agricultural Software Consultants, Inc., San Diego) and manufactured as cold pressed pellets.
Fish were stocked at a density of 15 fish per tank. Four practical diets were formulated to meet or exceed the known dietary requirements of juvenile hybrid striped bass. Each diet was supplemented with one of four concentrations of emulsifier providing dietary treatments of 0, 0.5, 1.0, and 2.0% Tween-80®, respectively. Fish were fed daily to satiation and feed consumption was monitored weekly. After 4 weeks, all fish in each tank were weighed to determine growth. Feed consumption was used to calculate feed conversion ratio (g feed:g weight gain).

[2] = test system: juvenile sunshine bass Morone chrysops×M. saxatilis; test: Gastric residuum stratification trial with pelleted diets with varied levels of lecithin inclusion; assay type: in vivo; settings: 2% BWD meal, 4.5 h post-prandial
From the text: Residuum appearance: Nine pellet trained sub-adult spotted bass (mean weight=150 grams) were maintained in isolation in 37.8 L glass aquariums for seven days. During days 1-5, the bass were hand-fed to satiation once daily with either a semi-purified pellet diet (See Table 2), live paper shell crayfish (Orconectes immunis), or live fathead minnows (Pimephales promelas). Three bass were given each dietary treatment. Crayfish and minnows were maintained on the same pelleted diet as the bass and fed to apparent satiation two times daily. On Day 6, food was withheld to allow complete evacuation of gastric contents. On Day 7, the bass were fed that same food as during Days 1-5, at a rate of approximately 2% of their body weight (dry weight of feed/wet weight of bass). Post-prandially (4.5 hours) the bass were dispatched with blunt trauma to the head before immersion in liquid nitrogen until frozen solid (approx. 2 mins.). The bass were stored frozen until the residuum was removed by dissection. The position of the pyloric sphincter was noted relative to the observed strata. Representative residua were photographed. Residuum strata were separated using a razor blade for determination of proximate composition.
Juvenile sunshine bass Morone chrysops×M. saxatilis (n=15) were stocked individually into 110 L tanks and acclimated for a period of five days. […]

[3] = juvenile hybrid striped bass, practical diets

| Compound | FCR (feed conversion ratio) ([1]; 0.5% Tween-80 in diet) | Weight Gain (%) ([1]; 0.5% Tween-80 in diet) | FCR (feed conversion ratio) ([1]; 1.0% Tween-80 in diet) | Weight Gain (%) ([1]; 1.0% Tween-80 in diet) | FCR (feed conversion ratio) ([1]; 2.0% Tween-80 in diet) | Weight Gain (%) ([1]; 2.0% Tween-80 in diet) | feed conversion compared to fish fed a control diet void of Tween-80 [1, 3] | weight gain compared to fish fed a control diet void of Tween-80 [1, 3] | stratification of the gastric residuum ([2]; lecithin inclusion rates of 0.25, 0.50, 1.00 and 2.00% of pellet weight) | amount of post-prandial water intake into the gastric residuum ([2]; lecithin inclusion rates of 0.50, 1.00 and 2.00%) |
| --- | --- | --- | --- | --- | --- | --- | --- | --- | --- | --- |
| CCCCCCCC/C=C\CCCCCCCC(=O)OCCOCC(OCCO)C1OCC(OCCO)C1OCCO (stereo not shown) [Tween-80] | 1.21 g feed:g gain | 118 | 1.16 g feed:g gain | 140 | 1.23 g feed:g gain | 125 | improved | improved | – | – |
| lecithin (phosphatidyl choline) | – | – | – | – | – | – | – | – | reduce stratification of the gastric residuum | reduce the amount of post-prandial water intake |
